Measured values taken from article PMC7472185 (Viruses, 2020).
Read-outs that look alike come from different tables or passages of the source.

Tests used:
HBV RT = HBV RT (Hepatitis B virus genotype C subtype adr, UniProt P12933); assay: T/P and substrate binding assay (cell-free), poly(rA)/oligo(dT) with DIG-dUTP; details: for Inhibitory effect on T/P and substrate binding activity of HBV RT: poly(rA)/oligo(dT); for inhibition at 10 µM / inhibition at 100 µM: read-out: % Inhibition to HBV RT of cell-free assay
[1] = tested on: NTCP-expressing HepG2 (NTCP/G2) cells; assay: Cytotoxicity, CellTiter-Glo, NTCP/G2 cells; format: cell-based; details: day 9
HBV [2] = assay: Intracellular core-associated HBV DNA by qPCR, HB611 cells; format: cell-based, Hepatitis B virus
HBV [3] = assay: microbe, parasite or virus in culture; format: cell-based, Hepatitis B virus; details: HB611 cells, read-out: IC50 for extracellular HBV production
HB611 cells = assay: Cytotoxicity, CellTiter-Glo, HB611 cells; format: cell-based, human
HBsAg = HBsAg ELISA of supernatant, HB611 cells; format: cell-based, Hepatitis B virus; details: suramin, KB-R7943, compound 3 up to 50, 20, and 25 µM, respectively
HBV [4] = assay: Intracellular core-associated HBV DNA by qPCR, NTCP/G2 infection system; format: cell-based, Hepatitis B virus
HBeAg [5] = assay: HBeAg ELISA of supernatant, HBV infection system NTCP/G2; format: cell-based, Hepatitis B virus; details: NTCP/G2, day 9
HBeAg [6] = assay: HBeAg ELISA of supernatant, HB611 cells; format: cell-based, Hepatitis B virus; details: suramin, KB-R7943, compound 3 up to 50, 20, and 25 µM, respectively
[7] = Cytotoxicity, CellTiter-Glo, NTCP/G2 cells; format: cell-based; details: human, NTCP-expressing HepG2 (NTCP/G2) cells, day 9
[8] = Cytotoxicity, CellTiter-Glo, HB611 cells; format: cell-based, human; details: human; HB611 cells, day 9
HBV cccDNA = assay: cccDNA by qPCR (Hirt DNA), NTCP/G2 infection system; format: cell-based, Hepatitis B virus; details: NTCP/G2 cells

Sequence of HBV RT (P12933 347-690): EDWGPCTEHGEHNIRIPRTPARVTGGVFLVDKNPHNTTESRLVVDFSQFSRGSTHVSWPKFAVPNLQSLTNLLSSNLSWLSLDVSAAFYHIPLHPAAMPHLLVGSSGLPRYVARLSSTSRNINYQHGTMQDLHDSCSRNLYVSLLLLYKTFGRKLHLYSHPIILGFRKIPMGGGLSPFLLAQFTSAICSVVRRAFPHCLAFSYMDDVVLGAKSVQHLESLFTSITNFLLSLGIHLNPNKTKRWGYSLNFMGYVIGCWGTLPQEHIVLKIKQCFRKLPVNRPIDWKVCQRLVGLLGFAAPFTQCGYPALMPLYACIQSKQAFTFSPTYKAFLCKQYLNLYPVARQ

Cc1cc2c(C(C)C)c(O)c(O)c(C=O)c2c(O)c1-c1c(C)cc2c(C(C)C)c(O)c(O)c(C=O)c2c1O [Gossypol]
Inhibitory effect on T/P and substrate binding activity of HBV RT (HBV RT; 10 µM compound): showed the higher inhibitory effects
inhibition at 10 µM (HBV RT; 10 µM compound): 92%
inhibition at 100 µM (HBV RT; 100 µM compound): 97%

N=C(N)SCCc1ccc(OCc2ccc([N+](=O)[O-])cc2)cc1 [KB-R7943]
CC50 [1]: 37.4 µM
Core-associated DNA (HBV [2]; HB611 cells): modest decrease
IC50 (HBV [3]): 3.7 µM
Inhibitory effect on T/P and substrate binding activity of HBV RT (HBV RT; 10 µM compound): showed the higher inhibitory effects
CC50 (HB611 cells): 41.9 µM
HBsAg secretion (HBsAg): no changes
putative IC50, core-associated HBV DNA (HBV [4]; NTCP/G2, day 9): 7.37 µM
HBeAg expression in the culture supernatant (HBeAg [5]): did not change
HBeAg secretion (HBeAg [6]): no changes

Nc1c(S(=O)(=O)O)cc(Nc2ccc(Nc3nc(Cl)nc(Nc4cccc(S(=O)(=O)O)c4)n3)c(S(=O)(=O)O)c2)c2c1C(=O)c1ccccc1C2=O [Reactive blue 2]
inhibition at 10 µM (HBV RT; 10 µM compound): 53%
inhibition at 100 µM (HBV RT; 100 µM compound): 100%

O=C(Nc1cccc(C(=O)Nc2ccc(S(=O)(=O)O)c3cc(S(=O)(=O)O)cc(S(=O)(=O)O)c23)c1)Nc1cccc(C(=O)Nc2ccc(S(=O)(=O)O)c3cc(S(=O)(=O)O)cc(S(=O)(=O)O)c23)c1 [NF023]
% Inhibition to HBV RT of cell-free assay (HBV RT; 10 µM compound): 26%
% Inhibition to HBV RT of cell-free assay (HBV RT; 100 µM compound): 96%

CC(=O)c1c(O)c(C)c(O)c(Cc2c(O)c3c(c(C(=O)/C=C/c4ccccc4)c2O)OC(C)(C)C=C3)c1O [Rottlerin]
inhibition at 10 µM (HBV RT): 35%
inhibition at 100 µM (HBV RT): 98%

C=CC1=C(C)c2cc3[nH]c(cc4nc(cc5[nH]c(cc1n2)c(C)c5CCC(=O)O)C(CCC(=O)O)=C4C)c(C)c3C=C [protoporphyrin IX disodium]
Inhibitory effect on T/P and substrate binding activity of HBV RT (HBV RT; 10 µM compound): showed the higher inhibitory effects

Cc1ccc(C(=O)Nc2ccc(S(=O)(=O)O)c3cc(S(=O)(=O)O)cc(S(=O)(=O)O)c23)cc1NC(=O)c1cccc(NC(=O)Nc2cccc(C(=O)Nc3cc(C(=O)Nc4ccc(S(=O)(=O)O)c5cc(S(=O)(=O)O)cc(S(=O)(=O)O)c45)ccc3C)c2)c1 [Suramin]
CC50 at 9 days [7]: > 200 µM
IC50 (HBV [2]; Hepatitis B virus, HB611, read-out: IC50 for core-associated DNA): 26.4 µM
IC50 (HBV [3]; Hepatitis B virus): 16.8 µM
Inhibitory effect on T/P and substrate binding activity of HBV RT (HBV RT; 10 µM compound): showed the higher inhibitory effects
inhibition at 10 µM (HBV RT; 10 µM compound): 69%
inhibition at 100 µM (HBV RT; 100 µM compound): 97%
CC50 at 9 days [8]: 168 µM
HBsAg secretion (HBsAg): no changes
IC50 (HBV [4]; Hepatitis B virus, 216 h, read-out: putative IC50, core-associated HBV DNA): 0.27 µM
cccDNA levels (HBV cccDNA): reduced
HBeAg expression in the culture supernatant (HBeAg [5]): reduced
HBeAg secretion (HBeAg [6]): no changes
